Legend:
MCF-7 = test: SRB cytotoxicity assay, MCF-7 breast carcinoma cells; conditions: Homo sapiens, MCF7, read-out: Cytotoxicity IC50, MCF-7
Experimental: (§2) To this end, a sulforhodamine B (SRB; purity ≥ 97%; Sigma, St. Louis, MO, USA) assay was performed, as described elsewhere [53, 54]. […] IC50 values were calculated from the differences in absorbance readings at 540 nm in untreated (negative control) and treated cells on a SpectraMax 190 microplate reader (Molecular Devices, San Jose, CA, USA) [53] through nonlinear regression analysis, using Origin 6.0 software (OriginLab, Northampton, MA, USA), and growth percentages were calculated as described elsewhere [53]. The data presented are the mean ± standard deviation of at least three independent cell preparations made in triplicate.

UACC-62 = test: SRB cytotoxicity assay, UACC-62 melanoma cells; conditions: for IC50: Homo sapiens, UACC-62, read-out: Cytotoxicity IC50, UACC-62
Experimental: as §2

Hep2 = test: SRB cytotoxicity assay, Hep2 larynx carcinoma cells; type: cell-based; conditions: Homo sapiens, HEp-2, mean ± SD, three independent experiments
[1] = DPPH-radical-scavenging assay; conditions: 30 min, absorbance at 515 nm; mean ± SD, three independent experiments; read-out: Radical-scavenging activity against DPPH, IC50
Experimental: The radical-scavenging activities of compounds 1–6 were determined using DPPH (a stable free radical), employing the method of microdilution in 96-well microplates described by Zhang et al. and Yamaguchi et al., with some modifications. The assays were performed in triplicate, using caffeic acid as a standard compound and a DPPH solution in EtOH (200 µM) as a negative control. Solutions of samples in EtOH at 200 µM were serially diluted to 100, 50, 25, 12.5, and 6.25 µM. Each solution (100 µL) was mixed with 100 µL of DPPH solution. The samples were allowed to stand at room temperature in the dark for 30 min, after which their absorbances were recorded at 515 nm. The ability of test materials to scavenge DPPH radicals was calculated as follows: DPPH scavenging effect (%) = 100 (Acontrol − Asample)/Acontrol. Radical-scavenging activities were assessed on the basis of their IC50 values determined by linear regression.

NCI/ADR-RES = test: SRB cytotoxicity assay, NCI/ADR-RES ovary carcinoma cells, multidrug-resistant phenotype; conditions: Homo sapiens, read-out: Cytotoxicity IC50, NCI/ADR-RES
Experimental: as §2

786-0 = test: SRB cytotoxicity assay, 786-0 kidney carcinoma cells; conditions: Homo sapiens, 786-0, read-out: Cytotoxicity IC50, 786-0
Experimental: as §2

VERO cells = test: SRB cytotoxicity assay, VERO nonneoplastic cells; type: cell-based, monkey
Text: (§1) In addition, 4 inhibited the proliferation of UACC-62 and VERO cells in a dose-dependent manner.

[2] = SRB cytotoxicity assay, VERO nonneoplastic cells; type: cell-based, monkey; conditions: monkey, VERO (monkey kidney) nonneoplastic cells; at 2.5 µg mL^−1
Text: as §1

[3] = 0.25, 2.5 and 25 µg mL^−1, points above zero in growth curves (Figure 2)

Row | Structure (SMILES) | IC50 [1] [µM] | IC50 (MCF-7) [µM] | IC50 (UACC-62) [µM] | IC50 (Hep2) [µM] | IC50 (NCI/ADR-RES) [µM] | IC50 (786-0) [µM] | Effect on UACC-62 cell growth (UACC-62; [3]) | Concentration from which a cytocidal (cell death) effect is seen on UACC-62 cells (UACC-62; points below zero in growth curves (Figure 2)) [µg/mL] | Effect on VERO cell growth (VERO cells; [3]) | IC50 (VERO cells; Primates, Vero, SRB assay, read-out: IC50 on nontumor mammalian VERO cells) [µM] | viability at 2.5 µg mL^−1 [2] [%]
1 | COc1cc2c(ccc3cc(O)cc(OC)c32)cc1O [Compound 2, 2,7-Dihydroxy-4,6-dimethoxyphenanthrene] | 20.4 ± 0.3 | 118 ± 9.29 | > 250 | > 250 | 84 ± 5.4 | 73.3 ± 7.7 | – | – | – | – | –
2 | COc1cc(CCc2cc(OC)c(OC)c(Oc3cc(OC)c(OC)c(OC)c3)c2)ccc1O [Compound 1, 4′-Hydroxy-3,3′,4-trimethoxy-5-(3,4,5-trimethoxyphenoxy)-bibenzyl] | 56.5 ± 0.3 | 72.7 ± 4.87 | – | 218 ± 2.52 | 32.1 ± 4.31 | 113 ± 2.89 | – | – | – | – | –
3 | COc1cc2ccc3cc(O)c(OC)c(OC)c3c2cc1O [Compound 3, 2,6-Dihydroxy-3,4,7-trimethoxyphenanthrene] | 45.6 ± 0.3 | 226 ± 5.09 | 247 ± 10.3 | – | 117 ± 2.66 | 64.3 ± 9.62 | – | – | – | – | –
4 | COc1cc2c(cc1O)CCc1cc(O)cc(OC)c1-2 [Compound 4, 2,7-dihydroxy-4,6-dimethoxy-9,10-dihydrophenanthrene] | 55.6 ± 0.4 | 47 ± 5.55 | 2.59 ± 0.11 | 208 ± 17.1 | 58.8 ± 2.33 | 57 ± 9.29 | cytostatic (growth inhibition) effect | ≥ 2.5 | cytostatic (growth inhibition) effect | 65.1 ± 4.51 | ~100
5 | COc1cc2c(cc1O)-c1c(cc(O)c(OC)c1OC)CC2 [Compound 5, 2,6-Dihydroxy-3,4,7-trimethoxy-9,10-dihydrophenanthrene] | 32.9 ± 0.3 | 42 ± 9.33 | 222 ± 3.04 | 223 ± 2.81 | 212 ± 14.1 | 199 ± 6.75 | – | – | – | – | –

The next lines start with results.

Row | IC50 [1] [µM] | Structure (SMILES) | IC50 (MCF-7) [µM] | IC50 (UACC-62) [µM] | IC50 (Hep2) [µM] | IC50 (NCI/ADR-RES) [µM] | IC50 (786-0) [µM] | Effect on UACC-62 cell growth (UACC-62; [3]) | Concentration from which a cytocidal (cell death) effect is seen on UACC-62 cells (UACC-62; points below zero in growth curves (Figure 2)) [µg/mL] | Effect on VERO cell growth (VERO cells; [3]) | IC50 (VERO cells; Primates, Vero, SRB assay, read-out: IC50 on nontumor mammalian VERO cells) [µM] | viability at 2.5 µg mL^−1 [2] [%]
6 | 17.7 ± 0.3 | COc1cc2c(cc1O)-c1c(cc(O)cc1OC)CC2 [Compound 6, 2,6-dihydroxy-4,7-dimethoxy-9,10-dihydrophenanthrene] | 160 ± 8.21 | 268 ± 13.8 | 547.58 ± 0.11 | 303 ± 12.6 | 257 ± 6.51 | – | – | – | – | –
7 | 10.9 ± 0.1 | O=C(O)/C=C/c1ccc(O)c(O)c1 [Caffeic acid, caffeic acid, reference compound] | – | – | – | – | – | – | – | – | – | –
